Patent US20060223888A1, “Valproic acid analogues and pharmaceutical composition thereof” (priority 2002, published 2006)

Assays:
[1] = test system: rotarod test (neurotoxicity); test: Rotarod neurotoxicity test (TOX), rats, oral; type: in vivo
Procedure: Anticonvulsant testing was conducted at the antiepileptic screening facility of the National Institute for Neurological Disorders and Stroke in Rockville, Md. Initial tests were done in mice (i.p.) followed by oral and i.p. administration to rats. Neurotoxicity was evaluated with the rotarod test. Maximal electroshock (MES) and subcutaneous methylene tetrazole (SCMET) or pentylene tetrazole (PTZ) were the most common tests performed. Typical procedures are described below.
Rotorod Test. Acute drug induced neurotoxicity is detected in mice using the standard rotorod test. An untreated mouse, when placed on a 6 rpm rotation rod, can maintain its equilibrium for a prolonged period of time.
A number of VPA analogues and their sodium salts were tested for their efficacy as anticonvulsants and for their toxicity using the MES Assay and rotarod test. In particular, the following compounds (as shown in the structures below) were tested: 332059U (sodium salt of VPA), 325071 (known compound, tested for comparison), 325073A (metabolite of VPA), 332060U (4,4-difluoro-2-propylpentanoate, fluorinated analogue of VPA), 341031, and 341032U (conjugated (E,Z)-2,3′-diene VPA analogues).

PTZ-induced seizures = test: ED50 against PTZ-induced seizures, i.p.; type: in vivo; settings: Rattus norvegicus, ip, male Sprague-Dawley rats (n = 8)
Source text: These compounds were investigated for anticonvulsant activity in mice^13 and rats (see results in Table 4) and found to be equivalent in potency to VPA.

[2] = children born to mothers treated with VPA; cited from earlier work
rat liver = settings: cited from earlier work
[3] = test system: Maximal Electroshock (MES) seizures; test: Maximal electroshock (MES) test, rats, oral, time to peak effect; type: in vivo; settings: 50 mg/kg
Procedure: Anticonvulsant testing was conducted at the antiepileptic screening facility of the National Institute for Neurological Disorders and Stroke in Rockville, Md. Initial tests were done in mice (i.p.) followed by oral and i.p. administration to rats. Neurotoxicity was evaluated with the rotarod test. Maximal electroshock (MES) and subcutaneous methylene tetrazole (SCMET) or pentylene tetrazole (PTZ) were the most common tests performed. Typical procedures are described below. MES Assay. Male CD1/CR mice weighing from 25-35 g are administrated test compounds 15 minutes prior to MES. Mice are challenged by pulsed electrical stimulation (50 mA, 0.4 s duration, pulse width 0.5 ms, 60 pulses/sec) via corneal electrodes to induce seizure. Mice are observed post-stimulation for the onset of tonic seizures, and considered to have a tonic seizure only if there is a prolonged extension (>90° from plane of body) of the hind legs. […] Ten mice are used in each group. A number of VPA analogues and their sodium salts were tested for their efficacy as anticonvulsants and for their toxicity using the MES Assay and rotarod test.

[4] = Pharmacokinetics and tissue distribution (plasma, liver, brain) after i.p. administration; type: in vivo, male Sprague-Dawley rats; settings: rat; for Affinity for / accumulation in the liver (in words): FIG. 1, Table 5
[5] = test system: Subcutaneous Methylene Tetrazole (SCMET) seizures; test: Subcutaneous methylene tetrazole (SCMET) test, rats, oral, time to peak effect; type: in vivo; settings: 75 mg/kg

SMILES: CCCC(CCC)C(=O)[O-].[Na+] [332059A, Sodium 2-propylpentanoate, reference compound]
- TOX: N/F = number of animals that failed the rotarod test to numbers tested ([1]; 300 mg/kg, 0.25 h): 0/4
- TOX: N/F = number of animals that failed the rotarod test to numbers tested ([1]; 300 mg/kg, 0.5 h): 0/4
- TOX: N/F = number of animals that failed the rotarod test to numbers tested ([1]; 300 mg/kg, 1.0 h): 0/4
- TOX: N/F = number of animals that failed the rotarod test to numbers tested ([1]; 300 mg/kg, 2.0 h): 0/4
- TOX: N/F = number of animals that failed the rotarod test to numbers tested ([1]; 300 mg/kg, 4.0 h): 0/4
- TOX: N/F = number of animals that failed the rotarod test to numbers tested ([1]; 400 mg/kg, 0.5 h): 0/4
- TOX: N/F = number of animals that failed the rotarod test to numbers tested ([1]; 400 mg/kg, 1.0 h): 0/4
- TOX: N/F = number of animals that failed the rotarod test to numbers tested ([1]; 400 mg/kg, 2.0 h): 0/4
- ED50 (PTZ-induced seizures): 158 mg/kg
- Neural tube defects leading to spina bifida, share of children born to treated mothers [2]: 1-2%

SMILES: C=CCC(CCC)C(=O)O (stereo not shown) [4-ene VPA, 2-propylpent-4-enoic acid]
- Lipid accumulation in rat liver (rat liver): induce massive lipid accumulation in rat liver

SMILES: C=C/C=C(\CCC)C(=O)O [(E)-2,4-diene-VPA, 2-propylpent-(E)-2,4-dienoic acid]
- Lipid accumulation in rat liver (rat liver): induce massive lipid accumulation in rat liver

SMILES: C/C=C\C(=C/CC)C(=O)[O-].[Na+] [325073A, Sodium (2E)-2-[(1Z)-prop-1-en-1-yl]pent-2-enoate]
- MES N/F = number of animals protected relative to number tested ([3]; 0.25 h): 2/4
- MES N/F = number of animals protected relative to number tested ([3]; 0.5 h): 0/4
- MES N/F = number of animals protected relative to number tested ([3]; 1.0 h): 0/4
- MES N/F = number of animals protected relative to number tested ([3]; 2.0 h): 0/4
- Distribution to the brain (in words) ([4]; FIG. 1): rapid distribution to the brain
- Affinity for / accumulation in the liver (in words) ([4]; listed as (E,Z)-2,3′-diene VPA): significantly reduced affinity for the liver
- Affinity for / accumulation in the liver (in words) ([4]; listed as (E,Z)-2,3′-diene-VPA): markedly reduced affinities for liver
- ED50 (PTZ-induced seizures): 168 mg/kg
- SCMET N/F = number of animals protected relative to number tested ([5]; 0.25 h): 1/4
- SCMET N/F = number of animals protected relative to number tested ([5]; 0.5 h): 0/4
- SCMET N/F = number of animals protected relative to number tested ([5]; 1.0 h): 0/4
- SCMET N/F = number of animals protected relative to number tested ([5]; 2.0 h): 0/4
- SCMET N/F = number of animals protected relative to number tested ([5]; 4.0 h): 0/4
